Measurements as given in patent publication US7074780B2, “Substituted phenylcyclohexanecarboxamides and their use” (Bayer Aktiengesellschaft, priority 2000, dated 2006).

System: adenosine-uptake system
Assay: Inhibition of the adenosine uptake in rabbit erythrocytes
Format: cell-based
Conditions: Oryctolagus cuniculus, 0.25 h; rabbit erythrocyte preparation; concentration at which 50% of the adenosine originally employed is still present 15 min after addition of adenosine; 30° C.; read-out: IC50 (inhibition of functional adenosine uptake)
Procedure: 2. Inhibition of the Adenosine Uptake in Rabbit Erythrocytes by the Compounds According to the Invention
The capability of substances to influence the adenosine-uptake system is investigated by determining the inhibitory effect of the substances on functional adenosine uptake.
For the functional adenosine-uptake test, an erythrocyte preparation from rabbit blood is used. The blood is drawn intravenously using citrate (3 ml Monovette 9NC from Sarstedt) as anticoagulant. The blood is centrifuged at 3000 g for 5 min and the erythrocytes are suspended in 10 mM 3-(N-morpholino)propanesulphonic acid buffer (MOPS)/0.9% NaCL solution pH7.4. The suspension is diluted to one hundredth of the original blood volume. In each case, 990 μl of the suspension are admixed with 10 μl of a suitable concentration of the substance to be investigated, and the mixture is incubated at 30° C. for 5 min. 5 μl of a 4 mM adenosine solution are then added, and the mixture is incubated at 30° C. for another 15 min. The samples are then centrifuged at 3000 g for 5 min and in each case 700 μl of the supernatant are admixed with 28 μl of 70% strength HClO4, allowed to stand in an ice bath for 30 min and centrifuged at 16,000 g for 3 min, and 350 μl of the sample are neutralized using 30 μl of 5N NaOH. 50 μl of the sample are applied to a column (Waters Symmetry C18 5 μm 3.9×150 mm). A Spherisorb ODS II 5 μm 4.6×10 mm column is used as precolumn. The mobile phase used is a gradient of […] KH2PO4/5 mM tributylamine pH7 (mobile phase A) and a mixture of mobile phase A/methanol 1/1 (mobile phase B). The gradient is from 10 to 40% B, at a flow rate of 0.5 ml/min. The adenosine which is present is quantified by its absorption at 260 nm, as are the hypoxanthine and inosine formed. The IC50 is the concentration of active compound at which, 15 min after addition of adenosine, 50% of the adenosine concentration originally employed is still present.

| SMILES | IC50 |
| --- | --- |
| NC(=O)[C@@H](NC(=O)[C@@H]1CCCC[C@H]1c1ccc(CN(C(=O)N2CCOCC2)c2ccccc2)cc1)c1ccccc1 [Example 1-1, N-{4-[(1R,2R)-2-({[(1S)-2-Amino-2-oxo-1-phenylethyl]amino}carbonyl)cyclohexyl]benzyl}-N-phenyl-4-morpholinecarboxamide] | 30 nM |
| CN(C)C(=O)N(Cc1ccc([C@@H]2CCCC[C@H]2C(=O)N[C@H](C(N)=O)c2ccccc2)cc1)c1ccccc1 [Example 1-3] | 20 nM |
| CN(C)C(=O)N(Cc1ccc([C@@H]2CCCC[C@H]2C(=O)N[C@H](C(N)=O)c2ccccc2)cc1)C1CC1 [Example 1-14] | 30 nM |
| CCN(CC)C(=O)N(Cc1ccc([C@@H]2CCCC[C@H]2C(=O)N[C@H](C(N)=O)c2ccccc2)cc1)c1ccccn1 [Example 1-33] | 40 nM |

Other lines, results leading:

| IC50 | SMILES |
| --- | --- |
| 20 nM | CCN(CCO)C(=O)N(Cc1ccc([C@@H]2CCCC[C@H]2C(=O)N[C@H](C(N)=O)c2ccc(F)cc2)cc1)c1ccc(F)cc1 [Example 2-1, (1R,2R)-N-[(1S)-2-Amino-1-(4-fluorophenyl)-2-oxoethyl]-2-(4-{[{[ethyl(2-hydroxyethyl)amino]carbonyl}(4-fluorophenyl)amino]methyl}phenyl)cyclohexanecarboxamide] |
| 20 nM | CCN(CCO)C(=O)N(Cc1ccc([C@@H]2CCCC[C@H]2C(=O)N[C@H](C(N)=O)c2ccccc2)cc1)c1ccccc1 [Example 2-18, (1R,2R)-N-[(1S)-2-Amino-1-phenyl-2-oxoethyl]-2-(4-{[{[ethyl(2-hydroxyethyl)-amino]carbonyl}(phenyl)amino]methyl}phenyl)cyclohexanecarboxamide] |
